Patent publication EP0738149B1 (priority 1994, dated 1995)

Experiments:
[1] = tested on: Male mongolian gerbils; assay: Global brain ischemia in gerbils (CA1 pyramidal neurons); format: in vivo; details: 3 injections, fraction of hippocampi protected from ischemia, 14 days post-ischemia
Summary of the method: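 Global ischemia induced by clamping each artery for 5 min. Compound given ip 2 min after clamp removal, then daily for the next 2 days (3 doses). CA1 pyramidal neurons counted 14 days post-ischemia in H&E-stained anterior hippocampal sections; percent protection is the fraction of hippocampi protected at the stated dose.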

[2] = tested on: mechanically dissociated neonatal rat cerebellum; assay: Reversal of NMDA induced cell death in cultures of neonatal rat cerebellum; format: cell-based; details: for SURVIVING CELL IN CULTURE: relative to control (100%); for PERCENT PROTECTION: Cell Survival minus the NMDA effect; for EFFECTIVE PROTECTION: X x 100/70
Summary of the method: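 Cerebellar cells from 6–7-day rat pups on poly-L-lysine at 200/mm^2, grown 3 days (37°C, 5% CO2), then compound with NMDA challenge (1mM, 3 hours); spermine (0.01 micromoles) plus NMDA as positive control, duplicates. Survival by phase contrast and trypan blue after 24 hours; effective protection = percent protection ×100/70.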

[3] = tested on: mice; assay: in vivo
Procedure: (§1) Neurotoxicity of the claimed agents was also assessed in mice (i.p. administration) by the rotorod ataxia test and/or in rats (p.o. administration) by positional sense test and gait stance test. […] The term quantitating the neurotoxicity is the medial neurological toxic dose (TD50), was determined in the above tests.

[4] = in vivo; details: mouse, in vivo, ip
Procedure: as §1

[5] = tested on: male ICR albino mice; assay: Hypobaric hypoxia survival time in mice; format: in vivo
Summary of the method: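 Drugs given i.p. 1 h before hypobaric hypoxia at 100 mmHg; time to respiratory arrest recorded, cutoff 15 min. Effect expressed as percent of saline- or vehicle-control survival time. Each dose tested in two groups of 4 mice, controls run before and after.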

[6] = Neurotoxicity in rats (positional sense test and gait stance test), p.o.; details: rat, in vivo, po
Procedure: as §1

[7] = tested on: rats; assay: as above; details: rats, p.o.; Table 16
Procedure: as §1

[8] = tested on: hypoxic rat; assay: Passive avoidance test in hypoxic rat, Experiment 3A; format: in vivo; details: Exp 3A, day 13 of drug treatment 0.5mg/kg/Day, Mean ± SEM; for latency of response, 48h after electroshock: maximum 300 seconds
Procedure: Experiment 3A: Wistar male rats, 15-19 month-old, were exposed to a single hypoxic episode as described above. […] The passive avoidance test was performed on day 13 after initiation the drug treatment. The apparatus consisted of a lit chamber that can be separated from a dark chamber by a sliding door. At training, a rat is placed in the lit chamber for 30 seconds, then the door is opened. The rat moves to the dark chamber after a short delay - the latency, that is recorded. Upon entry into the dark chamber, the door is shut closed and a 0.3-mA footshock is delivered for 3 seconds by a Grass S-88 stimulator. Retention of the experience is determined after 48 hours by repeating the test and recording the latency to an arbitrary maximum of 300 seconds. Longer latencies are ascribed to retention of memory and improved cognition.

[9] = 0.005 µM + NMDA 1mM for 3 hours
[10] = 0.010 µM + NMDA 1mM for 3 hours
[11] = 0.100 µM + NMDA 1mM for 3 hours
[12] = 50 mg/kg ip one hour prior to hypoxia
[13] = 100 mg/kg ip one hour prior to hypoxia
[14] = dose cell empty (line below 50 mg/kg ip)

SMILES	PERCENT PROTECTION ([1]; 0.1 mg/kg ip)	PERCENT PROTECTION ([1]; 1.0 mg/kg ip)	PERCENT PROTECTION ([1]; 10.0 mg/kg ip)	SURVIVING CELL IN CULTURE [2, 9]	PERCENT PROTECTION ([2]; 0.005 µM + NMDA)	EFFECTIVE PROTECTION ([2]; 0.005 µM + NMDA)	SURVIVING CELL IN CULTURE [2, 10]	PERCENT PROTECTION ([2]; 0.010 µM + NMDA)	EFFECTIVE PROTECTION ([2]; 0.010 µM + NMDA)	SURVIVING CELL IN CULTURE [2, 11]	PERCENT PROTECTION ([2]; 0.100 µM + NMDA)	PROTECTION % OF RESPECTIVE CONTROL [5, 12]	PROTECTION % OF RESPECTIVE CONTROL [5, 13]	PROTECTION % OF RESPECTIVE CONTROL [5, 14]	TD50 [6]	RATS TD50 [7]	latency of response, before electroshock [8]	latency of response, 48h after electroshock [8]	other results
CC(=O)N[C@@H]1CCc2ccccc21 [Example 18, (R)-N-Acetyl-1-aminoindan]	25.0%	25.0%	66.7%	80%	50%	71%	80%	50%	71%	55%	25%	271±193 % OF RESPECTIVE CONTROL	397±244 % OF RESPECTIVE CONTROL	383±233 % OF RESPECTIVE CONTROL	> 500 mg/kg	>500 mg/kg	–	–	EFFECTIVE PROTECTION ([2]; 0.100 µM + NMDA): 36%; SURVIVING CELL IN CULTURE ([2]; 1.000 µM + NMDA 1mM for 3 hours): 47%; PERCENT PROTECTION ([2]; 1.000 µM + NMDA): 17%; EFFECTIVE PROTECTION ([2]; 1.000 µM + NMDA): 24%; SURVIVING CELL IN CULTURE ([2]; 5.000 µM + NMDA 1mM for 3 hours): 32%; PERCENT PROTECTION ([2]; 5.000 µM + NMDA): 2%; EFFECTIVE PROTECTION ([2]; 5.000 µM + NMDA): 3%; MICE TD50 ([3]; mouse, in vivo, ip): 75 mg/kg; TD50 ([4]; MICE TD50): 75 mg/kg
N[C@@H]1CCc2ccccc21 [R-AI, (R)-1-aminoindan]	25.0%	25.0%	25.0%	80%	50%	71%	30%	0%	0%	28%	-2%	358±224 % OF RESPECTIVE CONTROL	395±199 % OF RESPECTIVE CONTROL	411±174 % OF RESPECTIVE CONTROL	492 mg/kg	492 mg/kg	53 ± 6 s	245 ± 33 s	MICE TD50 ([3]; mice, i.p., Table 16): 71 mg/kg; TD50 [4]: 71 mg/kg
C#CCN(C)[C@H](C)Cc1ccccc1 [deprenyl]	–	–	–	–	–	–	–	–	–	–	–	–	–	–	–	–	53 ± 7 s	153 ± 37 s	–
